Measurements reported in US6737383B1, “Herbicidal oxadiazolidines” (priority 1999, dated 2004).

Assays:
duck salad = assay: Test B flood test duck salad; type: in vivo, Heteranthera limosa
Method in brief: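 Each value is a visual injury score relative to controls, with 10 meaning complete control and 0 no effect. Evaluation took place twelve to sixteen days after the 2-leaf-stage plants were treated and kept in the greenhouse.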

wheat = assay: Test B pre/postemergence wheat; type: in vivo, Triticum aestivum
Method in brief: (§1)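 Test chemicals in a non-phytotoxic solvent mixture with surfactant were sprayed preemergence onto planted seeds and postemergence onto plants 2 to 18 cm tall (1- to 4-leaf stage). After twelve to sixteen days in a greenhouse, injury was visually rated against untreated controls from 0 (no effect) to 10 (complete control).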

giant foxtail = assay: Test B pre/postemergence giant foxtail; type: in vivo, Setaria faberii
Method in brief: as §1

crabgrass = assay: Test B pre/postemergence crabgrass; type: in vivo, Digitaria sanguinalis
Method in brief: as §1

[1] = Rate 62 g/ha, headed Pre-emergence (flood test species), scale 0 to 10 (0 no effect, 10 complete control)
[2] = Rate 125 g/ha, Pre-emergence, flood test species, scale 0 to 10 where 0 is no effect and 10 is complete control
[3] = Rate 250 g/ha, Pre-emergence, flood-test species, scale 0 to 10, 0 is no effect, 10 is complete control
[4] = Preemergence, Rate 31 g/ha, visual rating, scale 0 to 10 (0 no effect, 10 complete control)
[5] = Preemergence, Rate 62 g/ha, scale of 0 to 10 where 0 is no effect and 10 is complete control
[6] = Preemergence, Rate 250 g/ha, scale of 0 to 10 where 0 is no effect and 10 is complete control
[7] = Rate 62 g/ha, Postemergence, scale of 0 to 10 where 0 is no effect and 10 is complete control
[8] = Rate 125 g/ha, Postemergence, scale 0 to 10
[9] = Rate 125 g/ha, Preemergence, scale of 0 to 10 where 0 is no effect and 10 is complete control
[10] = Rate 31 g/ha, Postemergence, scale 0 to 10
[11] = Rate 500 g/ha, Pre-emergence, flood test species, scale 0 to 10 (0 no effect, 10 complete control)
[12] = Preemergence, Rate 500 g/ha, scale of 0 to 10 where 0 is no effect and 10 is complete control
[13] = Rate 500 g/ha, Postemergence, scale 0 to 10, 0 no effect, 10 complete control
[14] = Rate 125 g/ha, Postemergence, scale of 0 to 10 where 0 is no effect and 10 is complete control
[15] = Rate 250 g/ha, Postemergence, scale of 0 to 10 where 0 is no effect and 10 is complete control
[16] = Postemergence, Rate 1000 g/ha, scale 0 to 10 (0 no effect, 10 complete control)
[17] = Rate 1000 g/ha, Preemergence, scale 0 to 10 (0 no effect, 10 complete control)

`CCCCn1c(=O)on(C(=O)N(c2ccc(F)cc2)C(C)C)c1=O` [Compound 221] was tested, and the “Ducksalad plant response rating” value (duck salad; Rate 31 g/ha, Pre-emergence section (flood test species), scale 0 to 10) was 0, the “Ducksalad plant response rating” value (duck salad; [1]) was 0 and the “Ducksalad plant response rating” value (duck salad; [2]) was 0. The “Ducksalad plant response rating” value (duck salad; [3]) was 0, the “Wheat plant response rating” value (wheat; [4]) was 0 and the “Wheat plant response rating” value (wheat; [5]) was 0. The “Wheat plant response rating” value (wheat; [6]) was 2, the “Wheat plant response rating” value (wheat; [7]) was 0 and the “Wheat plant response rating” value (wheat; [8]) was 2. For the same molecule, the “Wheat plant response rating” value (wheat; [9]) was 2, the “Plant response rating (0 to 10; 0 is no effect, 10 is complete control), Wheat” value (wheat; Rate 250 g/ha, Postemergence) was 4 and the “Giant foxtail plant response rating” value (giant foxtail; [4]) was 5. The “Giant foxtail plant response rating” value (giant foxtail; [5]) was 5, the “Giant foxtail plant response rating” value (giant foxtail; [6]) was 10 and the “Giant foxtail plant response rating” value (giant foxtail; [10]) was 0. The “Giant foxtail plant response rating” value (giant foxtail; [7]) was 2, the “Giant foxtail plant response rating” value (giant foxtail; [8]) was 7 and the “Giant foxtail plant response rating” value (giant foxtail; [9]) was 9. The “Plant response rating (0 to 10; 0 is no effect, 10 is complete control), Giant foxtail” value (giant foxtail; Rate 250 g/ha, Postemergence) was 7, the “Crabgrass plant response rating” value (crabgrass; [4]) was 2 and the “Crabgrass plant response rating” value (crabgrass; [5]) was 6. For the same molecule, the “Crabgrass plant response rating” value (crabgrass; [6]) was 8, the “Crabgrass plant response rating” value (crabgrass; [10]) was 0 and the “Crabgrass plant response rating” value (crabgrass; [7]) was 2. The “Crabgrass plant response rating” value (crabgrass; [8]) was 6, the “Crabgrass plant response rating” value (crabgrass; [9]) was 8 and the “Plant response rating (0 to 10; 0 is no effect, 10 is complete control), Crabgrass” value (crabgrass; Rate 250 g/ha, Postemergence) was 8.

In the case of `CC(C)N(C(=O)n1oc(=O)n(CC2(C)COC2)c1=O)c1ccc(F)cc1` [Compound 226], the “Ducksalad plant response rating” value (duck salad; [1]) is reported as 0, the “Ducksalad plant response rating” value (duck salad; [2]) is reported as 0 and the “Ducksalad plant response rating” value (duck salad; [3]) is reported as 0. For the same molecule, the “Ducksalad plant response rating” value (duck salad; [11]) was 0, the “Wheat plant response rating” value (wheat; [5]) was 6 and the “Wheat plant response rating” value (wheat; [6]) was 8. For the same molecule, the “Plant response rating, Wheat” value (wheat; [12]) was 8, the “Wheat plant response rating” value (wheat; [7]) was 2 and the “Wheat plant response rating” value (wheat; [8]) was 4. The “Wheat plant response rating” value (wheat; [9]) was 8, the “Plant response rating (0 to 10; 0 is no effect, 10 is complete control), Wheat” value (wheat; Rate 250 g/ha, Postemergence) was 7 and the “Wheat plant response rating” value (wheat; [13]) was 9. The “Giant foxtail plant response rating” value (giant foxtail; [5]) was 9, the “Giant foxtail plant response rating” value (giant foxtail; [6]) was 10 and the “Plant response rating, Giant foxtail” value (giant foxtail; [12]) was 10. For the same molecule, the “Giant foxtail plant response rating” value (giant foxtail; [7]) was 2, the “Giant foxtail plant response rating” value (giant foxtail; [8]) was 7 and the “Giant foxtail plant response rating” value (giant foxtail; [9]) was 10. The “Plant response rating (0 to 10; 0 is no effect, 10 is complete control), Giant foxtail” value (giant foxtail; Rate 250 g/ha, Postemergence) was 7, the “Giant foxtail plant response rating” value (giant foxtail; [13]) was 7 and the “Crabgrass plant response rating” value (crabgrass; [5]) was 5. For the same molecule, the “Crabgrass plant response rating” value (crabgrass; [6]) was 10, the “Plant response rating, Crabgrass” value (crabgrass; [12]) was 10 and the “Crabgrass plant response rating” value (crabgrass; [7]) was 0. The “Crabgrass plant response rating” value (crabgrass; [8]) was 0, the “Crabgrass plant response rating” value (crabgrass; [9]) was 9 and the “Plant response rating (0 to 10; 0 is no effect, 10 is complete control), Crabgrass” value (crabgrass; Rate 250 g/ha, Postemergence) was 3. The “Crabgrass plant response rating” value (crabgrass; [13]) was 8.

For `Cc1ccccc1-n1c(=O)on(C(=O)N(c2ccc(N(C)C)cc2)C(C)C)c1=O` [Compound 237], the “Ducksalad plant response rating” value (duck salad; [1]) was 0, the “Ducksalad plant response rating” value (duck salad; [2]) was 0 and the “Ducksalad plant response rating” value (duck salad; [3]) was 0. The “Ducksalad plant response rating” value (duck salad; [11]) was 0, the “Wheat plant response rating” value (wheat; [5]) was 0 and the “Wheat plant response rating” value (wheat; [6]) was 0. The “Plant response rating, Wheat” value (wheat; [12]) was 0, the “Wheat plant response rating” value (wheat; [7]) was 0 and the “Wheat plant response rating” value (wheat; [8]) was 0. For the same molecule, the “Wheat plant response rating” value (wheat; [9]) was 0, the “Plant response rating (0 to 10; 0 is no effect, 10 is complete control), Wheat” value (wheat; Rate 250 g/ha, Postemergence) was 0 and the “Wheat plant response rating” value (wheat; [13]) was 0. The “Giant foxtail plant response rating” value (giant foxtail; [5]) was 0, the “Giant foxtail plant response rating” value (giant foxtail; [6]) was 4 and the “Plant response rating, Giant foxtail” value (giant foxtail; [12]) was 4. For the same molecule, the “Giant foxtail plant response rating” value (giant foxtail; [7]) was 0, the “Giant foxtail plant response rating” value (giant foxtail; [8]) was 0 and the “Giant foxtail plant response rating” value (giant foxtail; [9]) was 0. The “Plant response rating (0 to 10; 0 is no effect, 10 is complete control), Giant foxtail” value (giant foxtail; Rate 250 g/ha, Postemergence) was 0, the “Giant foxtail plant response rating” value (giant foxtail; [13]) was 0 and the “Crabgrass plant response rating” value (crabgrass; [5]) was 0. For the same molecule, the “Crabgrass plant response rating” value (crabgrass; [6]) was 2, the “Plant response rating, Crabgrass” value (crabgrass; [12]) was 3 and the “Crabgrass plant response rating” value (crabgrass; [7]) was 0. The “Crabgrass plant response rating” value (crabgrass; [8]) was 0, the “Crabgrass plant response rating” value (crabgrass; [9]) was 0 and the “Plant response rating (0 to 10; 0 is no effect, 10 is complete control), Crabgrass” value (crabgrass; Rate 250 g/ha, Postemergence) was 0. The “Crabgrass plant response rating” value (crabgrass; [13]) was 0.

`Cc1ccccc1-n1c(=O)on(C(=O)N(c2ccc(C(C)(C)C)cc2)C(C)C)c1=O` [Compound 270] was tested, and the “Ducksalad plant response rating” value (duck salad; [1]) was 0, the “Ducksalad plant response rating” value (duck salad; [2]) was 0 and the “Ducksalad plant response rating” value (duck salad; [3]) was 0. The “Ducksalad plant response rating” value (duck salad; [11]) was 0, the “Wheat plant response rating” value (wheat; [5]) was 0 and the “Wheat plant response rating” value (wheat; [6]) was 0. For the same molecule, the “Plant response rating, Wheat” value (wheat; [12]) was 0, the “Wheat plant response rating” value (wheat; [14]) was 0 and the “Wheat plant response rating” value (wheat; [9]) was 0. The “Plant response rating, Wheat” value (wheat; [15]) was 0, the “Wheat plant response rating” value (wheat; [13]) was 0 and the “Giant foxtail plant response rating” value (giant foxtail; [5]) was 0. The “Giant foxtail plant response rating” value (giant foxtail; [6]) was 0, the “Plant response rating, Giant foxtail” value (giant foxtail; [12]) was 0 and the “Giant foxtail plant response rating” value (giant foxtail; [14]) was 0. For the same molecule, the “Giant foxtail plant response rating” value (giant foxtail; [9]) was 0, the “Plant response rating, Giant foxtail” value (giant foxtail; [15]) was 0 and the “Giant foxtail plant response rating” value (giant foxtail; [13]) was 0. The “Crabgrass plant response rating” value (crabgrass; [5]) was 0, the “Crabgrass plant response rating” value (crabgrass; [6]) was 0 and the “Plant response rating, Crabgrass” value (crabgrass; [12]) was 0. The “Crabgrass plant response rating” value (crabgrass; [14]) was 0, the “Crabgrass plant response rating” value (crabgrass; [9]) was 0 and the “Plant response rating, Crabgrass” value (crabgrass; [15]) was 0. The “Crabgrass plant response rating” value (crabgrass; [13]) was 0.

For `C=CCn1c(=O)on(C(=O)N(c2ccc(F)cc2)C(C)C(=O)OCC)c1=O` (stereo not drawn) [Compound 279], the “Ducksalad plant response rating” value (duck salad; Pre-emergence, Rate 1000 g/ha, scale 0 to 10 (0 no effect, 10 complete control)) was 0, the “Ducksalad plant response rating” value (duck salad; [2]) was 0 and the “Ducksalad plant response rating” value (duck salad; [3]) was 0. The “Ducksalad plant response rating” value (duck salad; [11]) was 0, the “Wheat plant response rating” value (wheat; [16]) was 1 and the “Wheat plant response rating” value (wheat; [6]) was 0. For the same molecule, the “Plant response rating, Wheat” value (wheat; [12]) was 0, the “Wheat plant response rating” value (wheat; [14]) was 0 and the “Wheat plant response rating” value (wheat; [9]) was 0. The “Plant response rating, Wheat” value (wheat; [15]) was 0, the “Wheat plant response rating” value (wheat; [13]) was 0 and the “Plant response rating, Wheat” value (wheat; [17]) was 0. The “Giant foxtail plant response rating” value (giant foxtail; [16]) was 4, the “Giant foxtail plant response rating” value (giant foxtail; [6]) was 6 and the “Plant response rating, Giant foxtail” value (giant foxtail; [12]) was 7. For the same molecule, the “Giant foxtail plant response rating” value (giant foxtail; [14]) was 0, the “Giant foxtail plant response rating” value (giant foxtail; [9]) was 3 and the “Plant response rating, Giant foxtail” value (giant foxtail; [15]) was 0. For the same molecule, the “Giant foxtail plant response rating” value (giant foxtail; [13]) was 1, the “Plant response rating, Giant foxtail” value (giant foxtail; [17]) was 7 and the “Crabgrass plant response rating” value (crabgrass; [6]) was 0. For the same molecule, the “Plant response rating, Crabgrass” value (crabgrass; [12]) was 1, the “Crabgrass plant response rating” value (crabgrass; [14]) was 0 and the “Crabgrass plant response rating” value (crabgrass; [9]) was 0. The “Plant response rating, Crabgrass” value (crabgrass; [15]) was 0, the “Crabgrass plant response rating” value (crabgrass; [13]) was 0 and the “Plant response rating, Crabgrass” value (crabgrass; [17]) was 4.
